# Values of other authors in patent US20170000414A1, “Use of Blood Flow Parameters to Monitor or Control the Dosing of Anti-Platelet Agents” (RHEOVECTOR, LLC, priority 2014, published 2017).
# How the values were obtained:
# [1] = aspirin 81 mg; healthy individuals
# [2] = 18,624 patients having prior acute coronary syndrome
compound,measurement,setting,value
"CC(=O)Oc1ccccc1C(=O)O [Aspirin, acetylsalicylic acid]",effect on blood viscosity,[1],no significant effect
CCCSc1nc(N[C@@H]2C[C@H]2c2ccc(F)c(F)c2)c2nnn([C@@H]3C[C@H](OCCO)[C@@H](O)[C@H]3O)c2n1 [Ticagrelor],rate of cardiovascular disease (CVD) events and death compared with clopidogrel,[2],reduce significantly
COC(=O)[C@H](c1ccccc1Cl)N1CCc2sccc2C1 [clopidogrel],"reducing CVD events or death, compared with aspirin 325 mg","clopidogrel 75 mg, 19,185 patients with atherosclerosis (symptomatic PAD, recent ischemic stroke or MI)",more effective
same,relative risk reduction,"group entering the trial with symptomatic PAD, p=0.0028",23.8%
same,"reduction in MI, stroke or cardiovascular death rates",patients who entered the trial with an ischemic stroke or MI,no reduction
